The results in this text go back to US20080305995A1, “Royal Jelly Peptide and Composition Containing the Same” (priority 2003, published 2008).

One experiment has as its system honeybee larvae. The experiment is described as follows: Effect of inducing differentiation to queen bees (honeybee artificial breeding, peptide in artificial diet). It is filed as in vivo, Western honeybees (Apis mellifela). How it is done:
Functional analysis was carried out by using the royal jelly peptide obtained in Example 6. Specifically, honeybees were bred according to the existing honeybee artificial breeding method. In this process, 500 ng of the royal jelly peptide was added in the artificial diet to be administered per honeybee. On the other hand, for the control group, bovine serum albumin was used in place of the royal jelly peptide.
The growth rate from larvae to imagines is about 20%. […] From this, it can be considered that the royal jelly peptide of the invention of this invention is […] having an auxiliary function in inducing differentiation to queen bees.

The test system of experiment [1] is lymphocyte cell derived from a mouse spleen. The experiment is described as follows: Immunity activation test (alamar blue, lymphocyte growth). The conditions noted are these: 3 μg/ml and 6 μg/ml, every 12 hours for 4 days, compared with no addition (FIG. 9). It is filed as cell-based, ICR type mice. How it is done: For the laboratory animal, ICR type mice (female, Nippon SLC) were used.
Whereas, for the medium, an RPMI medium (manufactured by Nissui Pharmaceutical Co., Ltd.) containing 10% fetal calf serum (FCS), 2 mM L-glutamine, 50 μM 2-mercaptoethanol, 100 Units/ml penicillin, and 100 μg/ml streptomycin was used. Thus, culturing was carried out in 5% CO2 at 37° C. under wet conditions.
Namely, the mice anesthetized with diethyl ether were subjected to cervical vertebrae dislocation, and fixed. Then, by using scissors for dissection and tweezers, the spleen was excised, and transferred to a dish containing therein 10 ml of PBS (−) (137 mM NaCl, 2.7 mM KCl, 2 mM Na2HPO4-12HyO, 1.5 mM KH2PO4). In the dish, the spleen was homogenized. […]
The lymph cell suspension controlled was dyed with a 0.4% trypan blue solution, and the number of cells was counted by means of a Burker-Turk hemocytomer. […]
The lymph cell suspension controlled in the item <bb was added in an amount of 100 μl per well into a 96-well microplate (manufactured by IWAKI Co.). […] Thus, the changes in absorbance were measured by means of a microplate reader (manufactured by Nalge Nunc International Co.) set at a wavelength of 590 to 620 nm every 12 hours for 4 days to analyze the effects of each fraction and isolated compound on the lymphocytes. […]

[2] abbreviates: 500 ng per honeybee in artificial diet, 24 first instar larvae.
The mark [3] stands for this setting: 500 ng per honeybee in artificial diet, number among imagines.

For “apisimin (KTSISVKGESNVDVVSQINSLVSSIVSGANVSAVLLAQTLVNILQILIDANVFA) [Recombinant peptide, Royal jelly peptide of 54 amino acid residues (apisimin), expressed in E. coli as thioredoxin fusion, cleaved with Factor Xa]”, in the experiment on honeybee larvae (setting [2]), the Number of imagines is given as 4, the “Number of last instar larvae” value came to 14 and the Number of pupae is recorded as 8. Further, in the experiment with honeybee larvae (setting [3]), the “Caste: Intermediates” value is 1, the “Caste: Queen” value is on record as 0 and the “Caste: Working bee” value is recorded as 3. Besides, the “growth rate from larvae to imagines” value in the experiment on honeybee larvae (Table 1 experiment) was “about 20%”. The “emergence of intermediates out of the larvae” value in the experiment on honeybee larvae (larvae to which the royal jelly peptide had been administered) is recorded as “intermediates can be allowed to emerge”. Moreover, the “effect on the growth of lymphocyte cells (alamar blue absorbance)” value in experiment [1] was “remarkably exhibited”.
